Source: patent US20140303092A1 (CHIMERIX, INC., priority 2011, published 2014)

Assay: Study HDP-CDV-201: safety and tolerability (adverse events, laboratory abnormalities, discontinuations)
Format: in vivo, human (adult allogeneic HSCT recipients)
Procedure: Clinical Studies of HDP-CDV were performed and described in detail in the following Examples. For example, HDP-CDV-201 is a placebo-controlled, dose-escalating trial in HSCT CMV (R+) recipients, evaluating the ability of HDP-CDV to prevent or control CMV infection was carried out. Five cohorts were established in which participants or subjects received either placebo or the HDP-CDV orally, in doses ranging from 40 mg weekly (QW) to 200 mg twice weekly (BIW). Subjects who were post-HSCT were enrolled at the time of engraftment and randomized to HDP-CDV or placebo (3 to 1 ratio) and received blinded therapy until approximately 100 day post-transplantation. HDP-CDV doses were 40 mg QW, 100 mg QW, 200 mg QW, 200 mg BIW and 100 mg BIW. Escalation to the next dose was decided by the data monitoring committee after review of the safety data from the previous Cohort. Subjects who developed CMV disease or CMV infection requiring pre-emptive therapy with local standard of care were discontinued from blinded therapy and followed for 4 weeks. Subjects who completed treatment with blinded therapy were followed for 8 weeks post-therapy.
Data from Study HDP-CDV-201 also provided characterization of the safety and tolerability profile of HDP-CDV when administered for the prevention or control of CMV infection in high risk (R^+) post-HSCT adult subjects.
The Safety population (SAFETY) included all randomized subjects who took at least one dose of study treatment. This population was used to summarize safety outcomes based on the treatment actually received, in cases where a subject was treated contrary to the randomization schedule.
The safety and tolerability profile of HDP-CDV, including subject demographics and Baseline characteristics; the AE profile; and laboratory abnormalities of interest were analyzed in the cohorts followed in this investigation.
Subjects completing the treatment period received a full course of study medication; those completing the entire study attended visits through 8 weeks of follow up. Subjects who discontinued treatment may have done so for protocol specified reasons (e.g. development of clinically significant CMV infection requiring preemptive treatment with excluded anti-CMV medications) or for other reasons (e.g., withdrawal, adverse events, loss to follow-up). The disposition of subjects in Study HDP-CDV-201 during the double-blind, placebo-controlled treatment period (through Week 11) is listed by dosing Cohort in TABLE 23.
Adverse events were examined by severity to ensure that all safety signals were identified in this study population. Because of the frequency of events in HSCT recipients, particular attention was given to evaluation of Grade 3 […], 4 (severe), and 5 (fatal) adverse events.
Only those preferred terms for which at least one Grade 3 or higher event was experienced in any treatment group are listed. Cytomegalovirus-related AEs are excluded from this analysis.
HDP-CDV is a lipid conjugate of CDV. Because CDV is known to have adverse effects on renal function and bone marrow, decreased GFR and persistent neutropenia were identified as AEs of special interest. Key renal and hematological (TABLE 30) laboratory parameters were measured and listed below by Study HDP-CDV-201 treatment groups. TABLE 30 includes abnormal levels of serum creatinine, neutrophils, platelets, WBCs, and hemoglobin and includes data at Screening and during the treatment period.
A common metric for unit based dosing of medications is by weight (mg/kg). When the distribution of weights was examined for all subjects participating in the study, the median was 78 kg and the lower 25th percentile weight was approximately 65 kg, which translates to a cut-off of ˜3 mg/kg for a 200 mg total weekly dose. Based upon this approach, a cut-off of 3 mg/kg was used to assess the frequency of diarrhea and associated GI AEs reported for the subjects in Cohorts 3 or 4a (TABLE 40).

[1] = Cohort 2, 100 mg QW, through Week 11

CCCCCCCCCCCCCCCCOCCCOP(=O)(O)COC(CO)Cn1ccc(N)nc1=O (stereo not drawn) [HDP-CDV]
Alkaline Phosphatase (Screening) >2.5-5.0 × ULN, subjects (Cohort 2, 100 mg QW): 0
Alkaline Phosphatase (Screening) >5.0-20.0 × ULN, subjects (Cohort 2, 100 mg QW): 0
Alkaline Phosphatase (Screening) >20.0 × ULN, subjects (Cohort 2, 100 mg QW): 0
Alkaline Phosphatase (Screening) >ULN-[…] ULN, subjects (Cohort 2, 100 mg QW): 6 (22.2%)
Alkaline Phosphatase (any time during therapy) >2.5-5.0 × ULN, subjects (Cohort 2, 100 mg QW): 1 (3.7%)
Alkaline Phosphatase (any time during therapy) >5.0-20.0 × ULN, subjects (Cohort 2, 100 mg QW): 1 (3.7%)
Alkaline Phosphatase (any time during therapy) >20.0 × ULN, subjects (Cohort 2, 100 mg QW): 0
Alkaline Phosphatase (any time during therapy) >ULN-[…] ULN, subjects (Cohort 2, 100 mg QW): 7 (25.9%)
GI AE Leading to Study Drug Discontinuation: Abdominal pain, subjects (Cohort 2, 100 mg QW): 0
GI AE Leading to Study Drug Discontinuation: Diarrhoea, subjects (Cohort 2, 100 mg QW): 0
GI AE Leading to Study Drug Discontinuation: Dyspepsia, subjects (Cohort 2, 100 mg QW): 0
GI AE Leading to Study Drug Discontinuation: Nausea, subjects (Cohort 2, 100 mg QW): 0
GI AE Leading to Study Drug Discontinuation: Vomiting, subjects (Cohort 2, 100 mg QW): 1 (3.7%)
GI AEs Leading to Study Drug Discontinuation: Total subjects discontinued (Cohort 2, 100 mg QW): 1 (3.7%)
Gastrointestinal AE Abdominal discomfort, subjects (Cohort 2, 100 mg QW): 1 (3.7%)
Gastrointestinal AE Abdominal distention, subjects (Cohort 2, 100 mg QW): 2 (7.4%)
Gastrointestinal AE Abdominal pain upper, subjects (Cohort 2, 100 mg QW): 2 (7.4%)
Gastrointestinal AE Abdominal pain, subjects (Cohort 2, 100 mg QW): 2 (7.4%)
Gastrointestinal AE Constipation, subjects (Cohort 2, 100 mg QW): 0
Gastrointestinal AE Diarrhoea, subjects (Cohort 2, 100 mg QW): 8 (29.6%)
Gastrointestinal AE Diverticulum intestinal haemorragic, subjects (Cohort 2, 100 mg QW): 0
Gastrointestinal AE Dyspepsia, subjects (Cohort 2, 100 mg QW): 2 (7.4%)
Gastrointestinal AE Dysphagia, subjects (Cohort 2, 100 mg QW): 1 (3.7%)
Gastrointestinal AE Epigastric discomfort, subjects (Cohort 2, 100 mg QW): 1 (3.7%)
Gastrointestinal AE Flatulence, subjects (Cohort 2, 100 mg QW): 1 (3.7%)
Gastrointestinal AE GERD, subjects (Cohort 2, 100 mg QW): 4 (14.8%)
Gastrointestinal AE Gastritis, subjects (Cohort 2, 100 mg QW): 1 (3.7%)
Gastrointestinal AE Haematochezia, subjects (Cohort 2, 100 mg QW): 0
Gastrointestinal AE Haemorroids, subjects (Cohort 2, 100 mg QW): 0
Gastrointestinal AE Large intestinal ulcer, subjects (Cohort 2, 100 mg QW): 0
Gastrointestinal AE Nausea, subjects (Cohort 2, 100 mg QW): 5 (18.5%)
Gastrointestinal AE Odynophagia, subjects (Cohort 2, 100 mg QW): 0
Gastrointestinal AE Oesophagitis, subjects (Cohort 2, 100 mg QW): 0
Gastrointestinal AE Retching, subjects (Cohort 2, 100 mg QW): 1 (3.7%)
Gastrointestinal AE Vomiting, subjects (Cohort 2, 100 mg QW): 6 (22.2%)
Hepatobiliary clinical AE Cholelithiasis, subjects (Cohort 2, 100 mg QW): 0
Hepatobiliary clinical AE Hepatomegaly, subjects (Cohort 2, 100 mg QW): 0
Hepatobiliary clinical AE Hyperbilirubinaemia, subjects (Cohort 2, 100 mg QW): 0
Hepatobiliary clinical AE Jaundice, subjects (Cohort 2, 100 mg QW): 0
Hepatobiliary clinical AE Liver injury, subjects (Cohort 2, 100 mg QW): 0
Intensity of Gastrointestinal AEs, Grade 1, subjects (Cohort 2, 100 mg QW): 6 (22.2%)
Intensity of Gastrointestinal AEs, Grade 2, subjects (Cohort 2, 100 mg QW): 10 (37.0%)
Intensity of Gastrointestinal AEs, Grade 3, subjects (Cohort 2, 100 mg QW): 1 (3.7%)
Intensity of Gastrointestinal AEs, Grade 4, subjects (Cohort 2, 100 mg QW): 0
Intensity of Gastrointestinal AEs, Grade 5, subjects (Cohort 2, 100 mg QW): 0
Proportion of Subjects with Stage 3 or 4 Gut GVHD (Cohort 2, 100 mg QW): 0%
Serum ALT level, Median fold increase from Baseline at Follow-up Week 1 (Cohort 2, 100 mg QW): 1.50 fold
Serum ALT level, Median fold increase from Baseline at Follow-up Week 4 (Cohort 2, 100 mg QW): 0.96 fold
Serum ALT level, Peak Median fold increase from Baseline (Cohort 2, 100 mg QW): 1.53 fold
Subjects completed study (Cohort 2, 100 mg QW): 14 (51.9%) n (%)
Total Bilirubin (Screening) >1-[…] ULN, subjects (Cohort 2, 100 mg QW): 1 (3.8%)
Total Bilirubin (Screening) >1.5-3 × ULN, subjects (Cohort 2, 100 mg QW): 1 (3.8%)
Total Bilirubin (Screening) >3-10 × ULN, subjects (Cohort 2, 100 mg QW): 0
Total Bilirubin (Screening) >10 × ULN, subjects (Cohort 2, 100 mg QW): 0
Total Bilirubin (any time during therapy) >1-[…] ULN, subjects (Cohort 2, 100 mg QW): 0
Total Bilirubin (any time during therapy) >1.5-3 × ULN, subjects (Cohort 2, 100 mg QW): 1 (3.7%)
Total Bilirubin (any time during therapy) >3-10 × ULN, subjects (Cohort 2, 100 mg QW): 0
Total Bilirubin (any time during therapy) >10 × ULN, subjects (Cohort 2, 100 mg QW): 0
Abdominal pain leading to study drug withdrawal (Cohort 2, 100 mg QW, N = 27): 0%
All AEs leading to withdrawal (Cohort 2, 100 mg QW, N = 27): 9 (33.3%)
Diarrhoea leading to study drug withdrawal (Cohort 2, 100 mg QW, N = 27): 0%
Dyspepsia leading to study drug withdrawal (Cohort 2, 100 mg QW, N = 27): 0%
Nausea leading to study drug withdrawal (Cohort 2, 100 mg QW, N = 27): 0%
TEAE ALT increased (Cohort 2, 100 mg QW, N = 27): 1 (3.7%) n (%)
TEAE AST increased (Cohort 2, 100 mg QW, N = 27): 1 (3.7%) n (%)
TEAE Abdominal pain (Cohort 2, 100 mg QW, N = 27): 2 (7.4%) n (%)
TEAE Abdominal pain, Upper (Cohort 2, 100 mg QW, N = 27): 2 (7.4%) n (%)
TEAE Acute GVHD (Cohort 2, 100 mg QW, N = 27): 7 (25.5%) n (%)
TEAE Acute Myeloid Leukemia recurrent (Cohort 2, 100 mg QW, N = 27): 0 n (%)
TEAE Acute Renal Failure (Cohort 2, 100 mg QW, N = 27): 0 n (%)
TEAE Anxiety (Cohort 2, 100 mg QW, N = 27): 3 (11.1%) n (%)
TEAE Arthralgias (Cohort 2, 100 mg QW, N = 27): 3 (11.1%) n (%)
TEAE Back Pain (Cohort 2, 100 mg QW, N = 27): 2 (7.4%) n (%)
TEAE Blood lactate dehydrogenase increased (Cohort 2, 100 mg QW, N = 27): 1 (3.7%) n (%)
TEAE Creatinine increased (Cohort 2, 100 mg QW, N = 27): 5 (18.5%) n (%)
TEAE Cytomegalovirus viremia (Cohort 2, 100 mg QW, N = 27): 4 (14.8%) n (%)
TEAE Decreased appetite (Cohort 2, 100 mg QW, N = 27): 5 (18.5%) n (%)
TEAE Diarrhoea (Cohort 2, 100 mg QW, N = 27): 8 (29.6%) n (%)
TEAE Dysgeusia (Cohort 2, 100 mg QW, N = 27): 1 (3.7%) n (%)
TEAE Fatigue (Cohort 2, 100 mg QW, N = 27): 3 (11.1%) n (%)
TEAE GI Reflux Disease (Cohort 2, 100 mg QW, N = 27): 4 (14.8%) n (%)
TEAE Gamma-glutamyltransferase increased (Cohort 2, 100 mg QW, N = 27): 1 (3.7%) n (%)
TEAE Generalized oedema (Cohort 2, 100 mg QW, N = 27): 0 n (%)
TEAE Hyperbilirubinaemia (Cohort 2, 100 mg QW, N = 27): 0 n (%)
TEAE Hyperglycaemia (Cohort 2, 100 mg QW, N = 27): 1 (3.7%) n (%)
TEAE Hyperkalemia (Cohort 2, 100 mg QW, N = 27): 1 (3.7%) n (%)
TEAE Hypocalcaemia (Cohort 2, 100 mg QW, N = 27): 0 n (%)
TEAE Hypokalaemia (Cohort 2, 100 mg QW, N = 27): 2 (7.4%) n (%)
TEAE Hyponatraemia (Cohort 2, 100 mg QW, N = 27): 1 (3.7%) n (%)
TEAE Increased leukocytosis (Cohort 2, 100 mg QW, N = 27): 0 n (%)
TEAE Insomnia (Cohort 2, 100 mg QW, N = 27): 2 (7.4%) n (%)
TEAE Liver function test abnormal (Cohort 2, 100 mg QW, N = 27): 1 (3.7%) n (%)
TEAE Malnutrition (Cohort 2, 100 mg QW, N = 27): 0 n (%)
TEAE Nausea (Cohort 2, 100 mg QW, N = 27): 5 (18.5%) n (%)
TEAE Neutropenia (Cohort 2, 100 mg QW, N = 27): 4 (14.8%) n (%)
TEAE Oedema peripheral (Cohort 2, 100 mg QW, N = 27): 5 (18.5%) n (%)
TEAE Oral Candidiasis (Cohort 2, 100 mg QW, N = 27): 0 n (%)
TEAE Pneumonia (Cohort 2, 100 mg QW, N = 27): 2 (7.4%) n (%)
TEAE Pyrexia (Cohort 2, 100 mg QW, N = 27): 1 (3.7%) n (%)
TEAE Recurrent flatulence (Cohort 2, 100 mg QW, N = 27): 1 (3.7%) n (%)
TEAE Renal Failure (Cohort 2, 100 mg QW, N = 27): 2 (7.4%) n (%)
TEAE Staphylococcal Bacteremia (Cohort 2, 100 mg QW, N = 27): 1 (3.7%) n (%)
TEAE Thrombocytopenia (Cohort 2, 100 mg QW, N = 27): 3 (11.1%) n (%)
TEAE Tremor (Cohort 2, 100 mg QW, N = 27): 3 (11.1%) n (%)
TEAE Vomiting (Cohort 2, 100 mg QW, N = 27): 6 (22.2%) n (%)
Vomiting leading to study drug withdrawal (Cohort 2, 100 mg QW, N = 27): 1 (3.7%)
All AEs, Grade 5 (deaths) (Cohort 2, 100 mg QW, N = 27, entire study duration): 0%
Proportion of Subjects with Grade 3 Diarrhea (Cohort 2, 100 mg QW, no Grade 4 or 5 diarrhea in any Cohort): 0%
Subjects completed treatment [1]: 18 (66.7%) n (%)
Subjects who permanently discontinued treatment [1]: 9 (33.3%) n (%)
Grade of hepatobiliary AE acute liver injury, subject 3007 (Cohort 3): 3
